≈ marks a conversion by molar mass, not a printed value. Where two headings read alike, the source gives them in different places.
Tests used:
[1] = tested on: Aspergillus furnigatus B. 19119; assay: In vitro antifungal activity, microbroth dilution MIC; format: cell-based; conditions: 4 to 48 hours; for Minimal inhibitory concentration (MIC): A furnigatus B. 19119, RPMI-1640, 35° C.; for Minimal inhibitory concentration(MIC), A furnigatus B. 19119: RPMI-1640, 35° C., no growth observed
Procedure, shortened: (§1)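 Broth microdilution adapted from NCCLS M27, in RPMI-1640 with 0.165 M MOPS, pH 7.0. Yeast or mould inoculum at 2×10^3 CFU/ml was mixed 1:1 with DMSO-derived compound solutions (200 to 0.10 μg/ml before mixing) and incubated at 35 °C for 4 to 48 h. MIC was the concentration showing no growth.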

[2] = tested on: Aspergillus niger A. 16404; assay: as above; format: cell-based; conditions: 4 to 48 hours; for Minimal inhibitory concentration (MIC): A. niger A. 16404, RPMI-1640, 35° C.; for Minimal inhibitory concentration(MIC), A. niger A. 16404: RPMI-1640, 35° C., no growth observed
Procedure, shortened: as §1

[3] = tested on: Candida albicans A. 10231; assay: as above; format: cell-based; conditions: 4 to 48 hours; for Minimal inhibitory concentration (MIC): C. albicans A. 10231, RPMI-1640, 35° C.; for Minimal inhibitory concentration(MIC), C. albicans A. 10231: RPMI-1640, 35° C., no growth observed
Procedure, shortened: as §1

Candida albicans C1-2 = assay: as above; format: cell-based; conditions: 4 to 48 hours; for Minimal inhibitory concentration (MIC): C. albicans C1-2, RPMI-1640, 35° C.; for Minimal inhibitory concentration(MIC), C. albicans C1-2: RPMI-1640, 35° C., no growth observed
Procedure, shortened: as §1

[4] = tested on: Candida albicans IFO. 1385; assay: as above; format: cell-based; conditions: 4 to 48 hours; for Minimal inhibitory concentration (MIC): C. albicans IFO. 1385, RPMI-1640, 35° C.; for Minimal inhibitory concentration(MIC), C. albicans IFO. 1385: RPMI-1640, 35° C., no growth observed
Procedure, shortened: as §1

Candida krusei K. 11655 = assay: as above; format: cell-based; conditions: 4 to 48 hours; for Minimal inhibitory concentration (MIC): C. krusei K. 11655, RPMI-1640, 35° C.; for Minimal inhibitory concentration(MIC), C. krusei K. 11655: RPMI-1640, 35° C., no growth observed
Procedure, shortened: as §1

[5] = tested on: Candida parapsitosis A. 7330; assay: as above; format: cell-based; conditions: 4 to 48 hours; for Minimal inhibitory concentration (MIC): C. parapsitosis A. 7330, RPMI-1640, 35° C.; for Minimal inhibitory concentration(MIC), C. parapsitosis A. 7330: RPMI-1640, 35° C., no growth observed
Procedure, shortened: as §1

[6] = tested on: Candida tropicalis A. 13803; assay: as above; format: cell-based; conditions: 4 to 48 hours; for Minimal inhibitory concentration (MIC): C. tropicalis A. 13803, RPMI-1640, 35° C.; for Minimal inhibitory concentration(MIC), C. tropicalis A. 13803: RPMI-1640, 35° C., no growth observed
Procedure, shortened: as §1

[7] = tested on: Cryptococcus neoformans A. 34144; assay: as above; format: cell-based; conditions: 4 to 48 hours; for Minimal inhibitory concentration (MIC): Cry. neoformans A. 34144, RPMI-1640, 35° C.; for Minimal inhibitory concentration(MIC), Cry. neoformans A. 34144: RPMI-1640, 35° C., no growth observed
Procedure, shortened: as §1

[8] = tested on: Cryptococcus neoformans B. 42419; assay: as above; format: cell-based; conditions: 4 to 48 hours; for Minimal inhibitory concentration (MIC): Cry. neoformans B. 42419, RPMI-1640, 35° C.; for Minimal inhibitory concentration(MIC), Cry. neoformans B. 42419: RPMI-1640, 35° C., no growth observed
Procedure, shortened: as §1

[9] = tested on: Cryptococcus neoformans IFM. 40092; assay: as above; format: cell-based; conditions: 4 to 48 hours; for Minimal inhibitory concentration (MIC): Cry. neoformans IFM. 40092, RPMI-1640, 35° C.; for Minimal inhibitory concentration(MIC), Cry. neoformans IFM. 40092: RPMI-1640, 35° C., no growth observed
Procedure, shortened: as §1

[10] = tested on: Torulopsis glabrata B. 16205; assay: as above; format: cell-based; conditions: 4 to 48 hours; for Minimal inhibitory concentration (MIC): T. glabrata B. 16205, RPMI-1640, 35° C.; for Minimal inhibitory concentration(MIC), T. glabrata B. 16205: RPMI-1640, 35° C., no growth observed
Procedure, shortened: as §1

[11] = tested on: Trichophyton mentagrophytes A. 9129; assay: as above; format: cell-based; conditions: 4 to 48 hours; for Minimal inhibitory concentration (MIC): T. mentagrophytes A. 9129, RPMI-1640, 35° C.; for Minimal inhibitory concentration(MIC), T. mentagrophytes A. 9129: RPMI-1640, 35° C., no growth observed
Procedure, shortened: as §1

[12] = tested on: Trichophyton mentagrophytes B. 32663; assay: as above; format: cell-based; conditions: 4 to 48 hours; for Minimal inhibitory concentration (MIC): T. mentagrophytes B. 32663, RPMI-1640, 35° C.; for Minimal inhibitory concentration(MIC), T. mentagrophytes B. 32663: RPMI-1640, 35° C., no growth observed
Procedure, shortened: as §1

ICR mice = conditions: for LD50: single oral administration in corn oil containing 30% DMSO, observed for 7 days
Procedure: 30 four-week-old, specific pathogen-free ICR mice, 15 female mice each weighing about 15.8 to 22.3 g and 15 male mice each weighing about 18.7 to 25.6 g, were provided by the Animal Center of Korean Research Institute of Chemical and Technology.
When the mice became five-week-old, 15 female mice each weighing about 17.0 to 22.3 g and 15 male mice each weighing about 22.0 to 27.7 g were bred for 6 days before the experiment under an environment of […], 50±10% relative humidity, 12L/12D photoperiod, 10-20 ventilation and 150-300 Lux illumination, with free access to food(Cheil Fodder Co.) which had been sterilized by using 2.0 Mrad radiation and water sterilized by U.V. sterilizer.
The compound of Example 26 of the present invention was dissolved in corn oil containing 30% DMSO and the solution was orally administered in doses of 10, 50, 100, 500, 1,000 and 2,000 mg of the compound/kg of the body weight(10 ml of the sample volume/kg of the body weight). […] The weight changes of the mice were recorded every day to examine the effect of the test compound. Further, on the 7th day, the mice were sacrificed and the internal organs were visually examined.

mouse [13] = conditions: intravenous; cited from earlier work
mouse [14] = conditions: oral; cited from earlier work
[15] = tested on: Candida pseudotropicalis K. 11658; assay: In vitro antifungal activity, microbroth dilution MIC; format: cell-based; conditions: 4 to 48 hours; for Minimal inhibitory concentration(MIC), C. pseudotropicalis K. 11658: RPMI-1640, 35° C., no growth observed; for Minimal inhibitory concentration (MIC): C. pseudotropicalis K. 11658, RPMI-1640, 35° C.
Procedure, shortened: as §1

Row | SMILES | Minimal inhibitory concentration (MIC) [1] | Minimal inhibitory concentration (MIC) [2] | Minimal inhibitory concentration (MIC) [3] | Minimal inhibitory concentration (MIC) (Candida albicans C1-2) | Minimal inhibitory concentration (MIC) [4] | Minimal inhibitory concentration (MIC) (Candida krusei K. 11655) | Minimal inhibitory concentration (MIC) [5] | Minimal inhibitory concentration (MIC) [6] | Minimal inhibitory concentration (MIC) [7] | Minimal inhibitory concentration (MIC) [8] | Minimal inhibitory concentration (MIC) [9] | Minimal inhibitory concentration (MIC) [10] | Minimal inhibitory concentration (MIC) [11] | Minimal inhibitory concentration (MIC) [12] | further results
1 | COc1cccc(C(=C(F)OCC2COC(Cn3ccnc3)(c3ccc(Cl)cc3Cl)O2)C(F)(F)F)c1 (centres unmarked) [Example 26] | 3.13 µg/mL (≈ 5.72 µM) | 6.25 µg/mL (≈ 11.4 µM) | 6.25 µg/mL (≈ 11.4 µM) | 6.25 µg/mL (≈ 11.4 µM) | 0.39 µg/mL (≈ 0.713 µM) | 25.0 µg/mL (≈ 45.7 µM) | 12.5 µg/mL (≈ 22.8 µM) | 12.5 µg/mL (≈ 22.8 µM) | 1.56 µg/mL (≈ 2.85 µM) | 1.56 µg/mL (≈ 2.85 µM) | 0.39 µg/mL (≈ 0.713 µM) | 6.25 µg/mL (≈ 11.4 µM) | 1.56 µg/mL (≈ 2.85 µM) | 0.78 µg/mL (≈ 1.43 µM) | LD50 (ICR mice; female): approximately 2,000 mg/kg; LD50 (ICR mice; male): higher than 2,000 mg/kg; survival at day 7 (ICR mice; single oral dose of 1,000 mg/kg or below): All the mice were alive at day 7; weight loss (ICR mice; single oral doses 10 to 2,000 mg/kg, 7 day test period): no weight loss was observed
2 | C[C@@H]1[C@H](O)[C@@H](C)/C=C/C=C/C=C/C=C/C=C/C=C/C=C/[C@H](O[C@@H]2O[C@H](C)[C@@H](O)[C@H](N)[C@@H]2O)C[C@@H]2O[C@](O)(C[C@@H](O)C[C@@H](O)[C@H](O)CC[C@@H](O)C[C@@H](O)CC(=O)O[C@H]1C)C[C@H](O)[C@H]2C(=O)O [amphotericin B] |  |  |  |  |  |  |  |  |  |  |  |  |  |  | LD50 (mouse [13]): 4 mg/kg
3 | CC(=O)N1CCN(c2ccc(OCC3COC(Cn4ccnc4)(c4ccc(Cl)cc4Cl)O3)cc2)CC1 (centres unmarked) [ketoconazole] |  |  |  |  |  |  |  |  |  |  |  |  |  |  | LD50 (mouse [14]): 702 mg/kg
4 | Cc1ccc(C=C(F)Oc2ccc(OCC3COC(Cn4ccnc4)(c4ccc(Cl)cc4Cl)O3)cc2)cc1 (mixture of isomers) [Ex. 89] |  |  |  |  |  |  |  |  |  |  |  |  |  |  | Minimal inhibitory concentration(MIC), A furnigatus B. 19119 [1]: 100 µg/mL; Minimal inhibitory concentration(MIC), A. niger A. 16404 [2]: >100 µg/mL; Minimal inhibitory concentration(MIC), C. albicans A. 10231 [3]: 100 µg/mL; Minimal inhibitory concentration(MIC), C. albicans C1-2 (Candida albicans C1-2): 100 µg/mL; Minimal inhibitory concentration(MIC), C. albicans IFO. 1385 [4]: 25.0 µg/mL; Minimal inhibitory concentration(MIC), C. krusei K. 11655 (Candida krusei K. 11655): 12.5 µg/mL; Minimal inhibitory concentration(MIC), C. parapsitosis A. 7330 [5]: 12.5 µg/mL; Minimal inhibitory concentration(MIC), C. pseudotropicalis K. 11658 [15]: 6.25 µg/mL; Minimal inhibitory concentration(MIC), C. tropicalis A. 13803 [6]: 100 µg/mL; Minimal inhibitory concentration(MIC), Cry. neoformans A. 34144 [7]: 3.13 µg/mL; Minimal inhibitory concentration(MIC), Cry. neoformans B. 42419 [8]: 1.56 µg/mL; Minimal inhibitory concentration(MIC), Cry. neoformans IFM. 40092 [9]: 0.78 µg/mL; Minimal inhibitory concentration(MIC), T. glabrata B. 16205 [10]: 50.0 µg/mL; Minimal inhibitory concentration(MIC), T. mentagrophytes A. 9129 [11]: 6.25 µg/mL; Minimal inhibitory concentration(MIC), T. mentagrophytes B. 32663 [12]: 6.25 µg/mL
5 | Cc1cccc(C=C(F)OCC2COC(Cn3cncn3)(c3ccc(Cl)cc3Cl)O2)c1 (mixture of isomers) [Ex. 70] | 50.0 µg/mL | 100 µg/mL | 25.0 µg/mL | 25.0 µg/mL | 6.25 µg/mL | 100 µg/mL | >100 µg/mL | 100 µg/mL | 3.13 µg/mL | 3.13 µg/mL | 0.78 µg/mL | 25.0 µg/mL | 3.13 µg/mL | 3.13 µg/mL | Minimal inhibitory concentration (MIC) [15]: 50.0 µg/mL
6 | FC(OCC1COC(Cn2ccnc2)(c2ccc(F)cc2F)O1)=C(c1ccc(F)cc1)C(F)(F)F (mixture of isomers) [Ex. 66] | 6.25 µg/mL | >100 µg/mL | 12.5 µg/mL | 12.5 µg/mL | 0.39 µg/mL | 100 µg/mL | >100 µg/mL | 100 µg/mL | 0.78 µg/mL | 0.39 µg/mL | ≦0.10 μg/ml | 6.25 µg/mL | 6.25 µg/mL | 3.13 µg/mL | Minimal inhibitory concentration (MIC) [15]: 50.0 µg/mL
7 | COc1ccc(C(=C(F)Oc2ccc(OCC3COC(Cn4cncn4)(c4ccc(Cl)cc4Cl)O3)cc2)C(F)(F)F)cc1 (mixture of isomers) [Ex. 121] |  |  |  |  |  |  |  |  |  |  |  |  |  |  | Minimal inhibitory concentration(MIC), A furnigatus B. 19119 [1]: >100 µg/mL; Minimal inhibitory concentration(MIC), A. niger A. 16404 [2]: >100 µg/mL; Minimal inhibitory concentration(MIC), C. albicans A. 10231 [3]: 100 µg/mL; Minimal inhibitory concentration(MIC), C. albicans C1-2 (Candida albicans C1-2): 100 µg/mL; Minimal inhibitory concentration(MIC), C. albicans IFO. 1385 [4]: 3.13 µg/mL; Minimal inhibitory concentration(MIC), C. krusei K. 11655 (Candida krusei K. 11655): 100 µg/mL; Minimal inhibitory concentration(MIC), C. parapsitosis A. 7330 [5]: 100 µg/mL; Minimal inhibitory concentration(MIC), C. pseudotropicalis K. 11658 [15]: 25.0 µg/mL; Minimal inhibitory concentration(MIC), C. tropicalis A. 13803 [6]: >100 µg/mL; Minimal inhibitory concentration(MIC), Cry. neoformans A. 34144 [7]: 1.56 µg/mL; Minimal inhibitory concentration(MIC), Cry. neoformans B. 42419 [8]: 1.56 µg/mL; Minimal inhibitory concentration(MIC), Cry. neoformans IFM. 40092 [9]: 0.20 µg/mL; Minimal inhibitory concentration(MIC), T. glabrata B. 16205 [10]: 50.0 µg/mL; Minimal inhibitory concentration(MIC), T. mentagrophytes A. 9129 [11]: 6.25 µg/mL; Minimal inhibitory concentration(MIC), T. mentagrophytes B. 32663 [12]: 3.13 µg/mL

Source: patent publication US6376497B1, “Antifungal azole derivatives having a fluorinated vinyl group and process for preparing same” (Korea Research Institute of Chemical Technology, priority 1999, dated 2002)
